Columns and labels:
[1] = molecular target: human recombinant cytochrome P450 2C9 (Homo sapiens, UniProt P11712); assay: biochemical
[2] = molecular target: human recombinant cytochrome P450 3A4 (Homo sapiens, UniProt P08684); assay: Biological Test Example 6: CYP3A4 inhibition; format: in vitro ADME
[3] = Biological Test Example 5: fraction unbound in human plasma (equilibrium dialysis); format: in vitro ADME
[4] = molecular target: human recombinant cytochrome P450 2C19 (Homo sapiens, UniProt P33261); assay: Biological Test Example 8: CYP2C19 inhibition; format: in vitro ADME
Sequence of human recombinant cytochrome P450 2C19 (P33261 whole entry): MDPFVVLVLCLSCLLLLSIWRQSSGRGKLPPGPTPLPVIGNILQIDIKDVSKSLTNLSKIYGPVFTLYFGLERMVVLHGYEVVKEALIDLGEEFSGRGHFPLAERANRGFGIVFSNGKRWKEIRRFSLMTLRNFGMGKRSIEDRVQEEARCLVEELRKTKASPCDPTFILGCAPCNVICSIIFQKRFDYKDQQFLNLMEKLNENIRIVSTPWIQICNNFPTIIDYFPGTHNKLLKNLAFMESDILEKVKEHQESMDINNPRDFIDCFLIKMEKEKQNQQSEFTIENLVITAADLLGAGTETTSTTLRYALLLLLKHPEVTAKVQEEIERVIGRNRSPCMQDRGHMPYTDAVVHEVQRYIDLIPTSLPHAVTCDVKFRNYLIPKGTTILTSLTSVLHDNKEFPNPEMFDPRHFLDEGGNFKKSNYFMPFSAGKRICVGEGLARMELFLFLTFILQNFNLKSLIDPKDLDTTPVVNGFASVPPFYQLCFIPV

Sequence of human recombinant cytochrome P450 3A4 (P08684 whole entry): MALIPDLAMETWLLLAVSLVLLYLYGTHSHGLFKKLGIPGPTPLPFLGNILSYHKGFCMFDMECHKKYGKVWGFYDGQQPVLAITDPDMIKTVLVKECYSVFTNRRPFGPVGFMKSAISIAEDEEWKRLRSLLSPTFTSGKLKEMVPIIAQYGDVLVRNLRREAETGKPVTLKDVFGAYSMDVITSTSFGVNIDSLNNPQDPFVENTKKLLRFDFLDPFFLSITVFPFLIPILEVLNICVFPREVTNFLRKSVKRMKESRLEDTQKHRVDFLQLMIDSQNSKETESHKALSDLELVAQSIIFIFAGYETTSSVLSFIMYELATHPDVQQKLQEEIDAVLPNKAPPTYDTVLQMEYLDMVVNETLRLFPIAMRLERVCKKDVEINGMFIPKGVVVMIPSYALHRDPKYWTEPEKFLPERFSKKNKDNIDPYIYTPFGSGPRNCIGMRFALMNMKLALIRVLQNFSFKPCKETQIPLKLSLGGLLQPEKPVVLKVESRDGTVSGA
Sequence of human recombinant cytochrome P450 2C9 (P11712 whole entry): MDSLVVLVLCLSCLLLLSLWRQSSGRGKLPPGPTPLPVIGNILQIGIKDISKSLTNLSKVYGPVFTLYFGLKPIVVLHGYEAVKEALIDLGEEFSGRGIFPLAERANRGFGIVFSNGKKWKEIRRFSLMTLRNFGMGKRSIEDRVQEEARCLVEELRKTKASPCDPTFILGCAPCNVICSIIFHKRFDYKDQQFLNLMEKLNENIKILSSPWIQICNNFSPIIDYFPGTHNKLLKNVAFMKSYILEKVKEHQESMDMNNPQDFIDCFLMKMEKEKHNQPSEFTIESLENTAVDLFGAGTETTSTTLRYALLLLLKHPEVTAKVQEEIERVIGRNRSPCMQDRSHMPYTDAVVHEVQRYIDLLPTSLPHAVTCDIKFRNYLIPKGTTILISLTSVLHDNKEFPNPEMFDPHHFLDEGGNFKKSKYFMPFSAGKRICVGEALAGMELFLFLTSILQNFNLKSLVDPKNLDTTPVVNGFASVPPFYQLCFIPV

Row | Compound | IC50 [2] [µM] | fraction unbound [3] | also measured
1 | C[C@@H](c1ccc(-c2ccc(=O)n(C)c2)cc1)N1CC[C@](CC(C)(C)O)(c2ccccc2F)OC1=O [Example 23, (S)-6-(2-fluorophenyl)-6-(2-hydroxy-2-methylpropyl)-3-((S)-1-(4-(1-methyl-6-oxo-1,6-dihydropyridin-3-yl)phenyl)ethyl)-1,3-oxazinan-2-one] | > 50 | – | IC50 [1]: > 50 µM
2 | C[C@@H](c1ccc(-c2ccc(=O)n(C)c2)cc1)N1CC[C@](CCCO)(c2ccccc2)OC1=O [Example 30, (R)-6-(3-hydroxypropyl)-3-((S)-1-(4-(1-methyl-6-oxo-1,6-dihydropyridin-3-yl)phenyl)ethyl)-6-phenyl-1,3-oxazinan-2-one] | – | 0.139 | –
3 | C[C@@H](c1ccc(-c2ccc(=O)n(C)c2)cc1)N1CC[C@](CC(C)(C)O)(c2ccc(F)cc2)OC1=O [Example 32, (S)-6-(4-fluorophenyl)-6-(2-hydroxy-2-methylpropyl)-3-((S)-1-(4-(1-methyl-6-oxo-1,6-dihydropyridin-3-yl)phenyl)ethyl)-1,3-oxazinan-2-one] | – | 0.123 | –
4 | C[C@@H](c1ccc(-c2ccc(=O)n(C)c2)cc1)N1CC[C@](CC(C)(C)O)(c2ccccc2)OC1=O [Example 37, (S)-6-(2-hydroxy-2-methylpropyl)-3-((S)-1-(4-(1-methyl-6-oxo-1,6-dihydropyridin-3-yl)phenyl)ethyl)-6-phenyl-1,3-oxazinan-2-one] | – | 0.146 | –
5 | C[C@@H](c1ccc(-c2ccn(C)c(=O)c2)cc1)N1CC[C@](CC(C)(C)O)(c2ccccc2)OC1=O [Example 48, (S)-6-(2-hydroxy-2-methylpropyl)-3-((S)-1-(4-(1-methyl-2-oxo-1,2-dihydropyridin-4-yl)phenyl)ethyl)-6-phenyl-1,3-oxazinan-2-one] | – | 0.087 | –
6 | CC[C@@H](c1ccc(-c2ccc(=O)n(CC)c2)cc1)N1CC[C@](CC(C)(C)O)(c2ccccc2)OC1=O [Example 52, (S)-3-((S)-1-(4-(1-ethyl-6-oxo-1,6-dihydropyridin-3-yl)phenyl)propyl)-6-(2-hydroxy-2-methylpropyl)-6-phenyl-1,3-oxazinan-2-one] | 48 | 0.09 | IC50 [4]: 8 µM
7 | CCn1cc(-c2ccc([C@H](C)N3CC[C@](CC(C)(C)O)(c4ccccc4)OC3=O)cc2)ccc1=O [Example 53, (S)-3-((S)-1-(4-(1-ethyl-6-oxo-1,6-dihydropyridin-3-yl)phenyl)ethyl)-6-(2-hydroxy-2-methylpropyl)-6-phenyl-1,3-oxazinan-2-one] | – | 0.128 | –
8 | CC[C@@H](c1ccc(-c2ccc(=O)n(C)c2)cc1)N1CC[C@](CC(C)(C)O)(c2ccccc2)OC1=O [Example 54, (S)-6-(2-hydroxy-2-methylpropyl)-3-((S)-1-(4-(1-methyl-6-oxo-1,6-dihydropyridin-3-yl)phenyl)propyl)-6-phenyl-1,3-oxazinan-2-one] | – | 0.091 | –
9 | CC[C@@H](c1ccc(-c2ccn(C)c(=O)c2)cc1)N1CC[C@](CC(C)(C)O)(c2ccccc2)OC1=O [Example 55, (S)-6-(2-hydroxy-2-methylpropyl)-3-((S)-1-(4-(1-methyl-2-oxo-1,2-dihydropyridin-4-yl)phenyl)propyl)-6-phenyl-1,3-oxazinan-2-one] | – | 0.071 | –
10 | C[C@@H](c1ccc(-c2ccn(CC(F)(F)F)c(=O)c2)cc1)N1CC[C@](CC(C)(C)O)(c2ccccc2)OC1=O [Example 66, (S)-6-(2-hydroxy-2-methylpropyl)-3-((S)-1-(4-(2-oxo-1-(2,2,2-trifluoroethyl)-1,2-dihydropyridin-4-yl)phenyl)ethyl)-6-phenyl-1,3-oxazinan-2-one] | – | 0.055 | –
11 | C[C@@H](c1ccc(-c2ccn(C3CC3)c(=O)c2)cc1)N1CC[C@](CC(C)(C)O)(c2ccccc2)OC1=O [Example 75, 3-{(S)-1-[4-(1-Cyclopropyl-2-oxo-1,2-dihydro-pyridin-4-yl)-phenyl]-ethyl}-(S)-6-(2-hydroxy-2-methyl-propyl)-6-phenyl-[1,3]oxazinan-2-one] | – | 0.156 | –
12 | COC[C@]1(c2ccccc2)CCN([C@@H](C)c2ccc(-c3ccc(=O)n(C)c3)cc2)C(=O)O1 [Example 77, (R)-6-Methoxymethyl-3-{(S)-1-[4-(1-methyl-6-oxo-1,6-dihydro-pyridin-3-yl)-phenyl]-ethyl}-6-phenyl-[1,3]oxazinan-2-one] | > 50 | – | IC50 [1]: > 50 µM
13 | (S)-3-((S)-1-(4-(1-(difluoromethyl)-2-oxo-1,2-dihydropyridin-4-yl)phenyl)ethyl)-6-(2-hydroxy-2-methylpropyl)-6-phenyl-1,3-oxazinan-2-one [Example 5] | 29 | – | –
